Counter-ions that a name gives are not always drawn.
`Cc1cccc(N2CCN(CCc3ccc(-c4cccc(N)n4)cc3)CC2)c1` [Example 8, 6-{4-[2-(4-m-Tolyl-piperazin-1-yl)-ethyl]-phenyl}-pyridin-2-ylamine] showed a melting point of 158 to 160 °C. Work on `Nc1cccc(-c2ccc(CCN3CCN(CCc4ccccc4)CC3)cc2)n1` [Example 1, 6-{4-[2-(4-Phenethyl-piperazin-1-yl)-ethyl]-phenyl}-pyridin-2-ylamine] yielded a melting point of 111 to 113 °C. With `Nc1cccc(-c2ccc(CCN(CC3CCCCC3)CC3CCCCC3)cc2)n1` (as salt: salt) [Example 124, 6-{4-[2-(Bis-cyclohexylmethyl-amino)-ethyl]-phenyl}-pyridin-2-ylamine] the melting point was 75 to 85 °C. In the case of `Nc1cccc(-c2ccc(CCN3Cc4ccccc4C3)cc2)n1` [Example 22, 6-{4-[2-(1,3-Dihydro-isoindol-2-yl)-ethyl]-phenyl}-pyridin-2-ylamine], the melting point is reported as 140 to 143 °C. For `Nc1cccc(-c2ccc(CCN3C4CCC3CC(NC(=O)c3ccccc3)C4)cc2)n1` (stereo not drawn) (as salt: hydrochloride), the melting point was 211 °C (dec.). `Nc1cccc(-c2ccc(CCN3CCN(c4nnnn4-c4ccc(F)cc4)CC3)cc2)n1` [Example 48, 6-[4-(2-{4-[1-(4-Fluoro-phenyl)-1H-tetrazol-5-yl]-piperazin-1-yl}-ethyl)-phenyl]-pyridin-2-ylamine] gave a melting point of 185 to 187 °C. For `CN(C)C1CCN(CCc2ccc(-c3cccc(N)n3)cc2)CC1` [Example 21, 6-{4-[2-(4-Dimethylamino-piperidin-1-yl)-ethyl]-phenyl}-pyridin-2-ylamine], the melting point was 174 to 176 °C. For `Nc1cccc(-c2ccc(CCN3CC4C(C3)C4NCCc3ccccc3)cc2)n1` (stereo not drawn) (as salt: hydrochloride) [Example 46, (3-{2-[4-(6-Amino-pyridin-2-yl)-phenyl]-ethyl}-3-aza-bicyclo[3.1.0]hex-6-yl)-phenethyl-amine], the melting point was 165 °C (dec.). Molecule `Nc1cccc(-c2ccc(CCN3CCN(C(=O)c4ccco4)CC3)cc2)n1` [Example 7, (4-{2-[4-(6-Amino-pyridin-2-yl)-phenyl]-ethyl}-piperazin-1-yl)-furan-2-yl-methanone] has a melting point of 152 to 154 °C. With `CC(=O)N(CCc1ccc(-c2cccc(N)n2)cc1)C1CCN(Cc2ccccc2)CC1` (as salt: hydrochloride) the melting point was 60 to 70 °C (dec.). For `Nc1cccc(-c2ccc(CCN3CCN(C(=O)NC4CCCCC4)CC3)cc2)n1` [Example 32, 4-{2-[4-(6-Amino-pyridin-2-yl)-phenyl]-ethyl}-piperazine-1-carboxylic acid cyclohexylamide], the melting point was 180 to 182 °C. With `Nc1cccc(-c2ccc(CCN3CCC(NC(=O)Nc4ccccc4)C3)cc2)n1` (stereo not drawn) (as salt: hydrochloride) [Example 72, 1-(1-{2-[4-(6-Amino-pyridin-2-yl)-phenyl]-ethyl}-pyrrolidin-3-yl)-3-phenyl-urea] the melting point was 130 °C (dec.).

Reference: patent US6465491B2, “6-phenylpyridyl-2-amine derivatives” (Pfizer Inc., priority 1996, dated 2002)
